What all share (type): cell-based
Experiment [1] concerns Wnt activity (Sp5-Luc reporter, SW480 colon carcinoma cells). Nature of the experiment: Wnt activity screening assay: Sp5-Luc reporter gene assay in SW480 cells. As to conditions: Homo sapiens; for EC50: SW480 cells, overnight incubation; for inhibition at 10 µM: given where EC50 >10 μM, SW480, read-out: percent inhibition at 10 μM. An excerpt:
The screening assay for Wnt activity is described as follows. Reporter cell lines can be generated by stably transducing cancer cell lines (e.g., colon cancer) or primary cells (e.g., IEC-6 intestinal cells) with a lentiviral construct that includes a Wnt-responsive promoter driving expression of the firefly luciferase gene.
SW480 colon carcinoma cells were transduced with a lentiviral vector expressing luciferase with a human Sp5 promoter consisting of a sequence of eight TCF/LEF binding sites. SW480 cells stably expressing the Sp5-Luc reporter gene and a hygromycin resistance gene were selected by treatment with 150 μg/mL of hygromycin for 7 days. These stably transduced SW480 cells were expanded in cell culture and used for all further screening activities. Each compound was dissolved in DMSO as a 10 mM stock and used to prepare compound source plates. Serial dilution (1:3, 10-point dose-response curves starting from 10 μM) and compound transfer was performed using the ECHO 550 (Labcyte, Sunnyvale, Calif.) into 384-well white solid bottom assay plates (Greiner Bio-One) with appropriate DMSO backfill for a final DMSO concentration of 0.1%. For Sp5-Luc reporter gene assays, the cells were plated at 4,000 cells/well in 384-well plates with medium containing 1% fetal bovine serum and incubated overnight at 37° C. and 5% CO2. Following incubation, 20 μl of BrightGlo luminescence reagent (Promega) was added to each well of the 384-well assay plates. The plates were placed on an orbital shaker for 2 min and then luminescence was quantified using the Envision (Perkin Elmer) plate reader. Readings were normalized to DMSO only treated cells, and normalized activities were utilized for EC50 calculations using the dose-response log (inhibitor) vs. response -variable slope (four parameters) nonlinear regression feature available in GraphPad Prism 5.0 (or Dotmatics). For EC50 of >10 μM, the percent inhibition at 10 μM is provided.
In general terms: A reporter such as luciferase makes a cellular process visible.

For another experiment, the system named is SW480 colon cancer cells. Nature of the experiment: Cell viability assay (CellTiter-Blue). The conditions noted are these: Homo sapiens; for EC50: 96 h, SW480 cell viability, four days, CellTiter-Blue; for inhibition at 10 µM: given where EC50 >10 μM, SW480 viability, read-out: percent inhibition at 10 μM. The procedure:
Representative compounds were screened using the following assay procedure to assess the effect on cell viability as described below.
Each compound was dissolved in DMSO as a 10 mM stock and used to prepare compound source plates. Serial dilution (1:3, 8-point dose-response curves from 10 μM to 0.0045 μM) and compound transfer was performed using the ECHO 550 (Labcyte, Sunnyvale, Calif.) into 96-well clear bottom, black-walled plates (Corning-Costar).
Approximately 2×10^3 SW480 colon cancer cells were seeded into each well and allowed to incubate in the presence or absence of compound for four days at 37° C./5% CO2. Eight replicates of DMSO-treated cells served as controls and cells treated with compound were performed in duplicate.
After incubation, 20 μL of CellTiter-Blue (Promega) was added to each well allowed to incubate for approximately 3 hours. This reagent was a buffered solution which contains resazurin, metabolically active cells were able to reduce rezarurin (blue) into resorufin (pink) which was highly fluorescent. This measured fluorescence was used as a readout for cell viability.
After incubation, the plates were read at Ex 560 nm Em 590 nm (Cytation 3, BioTek). Dose-response curves were generated and EC50 concentration values were calculated using non-linear regression curve fit in the GraphPad Prism (San Diego, Calif.) or Dotmatics' Studies Software (Bishops Stortford, UK). For EC50 of >10 μM, the percent inhibition at 10 μM is provided.
In general terms: Resazurin is reduced to fluorescent resorufin, in cell work by metabolically active cells.

The subject of experiment [2] is primary human fibroblasts derived from IPF patients (LL29 cells). Nature of the experiment: Inhibition of the fibrotic process: αSMA staining in TGF-β1 treated fibroblasts. As to conditions: Fibroblast; for EC50: 96 h, LL29 cells, TGF-β1 20 ng/mL, 4 days, % αSMA positive cells; for inhibition at 10 µM: given where EC50 >10 μM, LL29, αSMA, read-out: percent inhibition at 10 μM. An excerpt: Representative compounds were screened using primary human fibroblasts (derived from IPF patients) treated with TGF-β1 to determine their ability to inhibit the fibrotic process.
Human Fibroblast Cell Culture: Primary human fibroblasts derived from IPF patients (LL29 cells) [^1Xiaoqiu Liu, et. al., “Fibrotic Lung Fibroblasts Show Blunted Inhibition by cAMP Due to Deficient cAMP Response Element-Binding Protein Phosphorylation”, Journal of Pharmacology and Experimental Therapeutics (2005), 315(2), 678-687; ^2Watts, K. L., et. al., “RhoA signaling modulates cyclin D1 expression in human lung fibroblasts; implications for idiopathic pulmonary fibrosis”, Respiratory Research (2006), 7(1), 88] were obtained from American Type Culture Collection (ATCC) and expanded in F12 medium supplemented with 15% Fetal Bovine Serum and Penicillin/Streptomycin.
Compound Screening: Each compound was dissolved in DMSO as a 10 mM stock and used to prepare compound source plates. Serial dilution (1:2, 11-point dose-response curves from 10 μM to […]) and compound transfer was performed using the ECHO 550 (Labcyte, Sunnyvale, Calif.) into 384-well clear bottom assay plates (Greiner Bio-One) with appropriate DMSO backfill for a final DMSO concentration of 0.1%. LL29 cells are plated at 1,500 cells/well in 80 μL/well F12 medium supplemented with 1% Fetal Bovine Serum. One hour after addition of the cells, TGF-β1 (Peprotech; 20 ng/mL) was added to the plates to induce fibrosis (ref. 1 and 2 above). Wells treated with TGF-β1 and containing DMSO were used as controls. Cells were incubated at 37° C. and 5% CO2 for 4 days. Following incubation for 4 days, SYTOX green nucleic acid stain (Life Technologies [Thermo Fisher Scientific]) was added to the wells at a final concentration of 1 μM and incubated at room temperature for 30 min. Cells were then fixed using 4% formaldehyde (Electron Microscopy Sciences), washed 3 times with PBS followed by blocking and permeabilization using 3% Bovine Serum Albumin (BSA; Sigma) and 0.3% Triton X-100 (Sigma) in PBS. Cells were then stained with antibody specific to α-smooth muscle actin (αSMA; Abcam) (ref. 1 and 2 above) in 3% Bovine Serum Albumin (BSA; Sigma) and 0.3% Triton X-100 (Sigma) in PBS, and incubated overnight at 4° C. Cells were then washed 3 times with PBS, followed by incubation with Alexa Flor-647 conjugated secondary antibody (Life Technologies [Thermo Fisher Scientific]) and DAPI at room temperature for 1 hour. Cells were then washed 3 times with PBS and plates were sealed for imaging. αSMA staining was imaged by excitation at 630 nm and emission at 665 nm and quantified using the Compartmental Analysis program on the CellInsight CX5 (Thermo Scientific). Dead or apoptotic cells were excluded from analysis based on positive SYTOX green staining. % of total cells positive for αSMA were counted in each well and normalized to the average of 11 wells treated with TGF-β1 on the same plate using Dotmatics' Studies Software. The normalized averages (fold change over untreated) of 3 replicate wells for each compound concentration were used to create dose-responses curves and EC50 values were calculated using non-linear regression curve fit in the Dotmatics' Studies Software. For EC50 of >10 μM, the percent inhibition at 10 μM is provided.

A word on the EC50: it is the concentration that produces a half-maximal response. By inhibition is commonly meant the change of the read-out against control, counted positive when it falls. As for `Fc1cccc(-c2ccnc3[nH]c(-c4n[nH]c5ccc(-c6cccnc6)nc45)cc23)c1` [Compound 4, 3-(4-(3-Fluorophenyl)-1H-pyrrolo[2,3-b]pyridin-2-yl)-5-(pyridin-3-yl)-1H-pyrazolo[4,3-b]pyridine], the EC50 is above 10 µM in experiment [1], above 10 µM with SW480 colon cancer cells and 0.144 µM in experiment [2]. Also, the results for the inhibition at 10 µM (in experiment [1]; in the experiment with SW480 colon cancer cells) were 47.3% and 6.4%, respectively.

On to `CC(C)(C)C(=O)Nc1cncc(-c2ccc3[nH]nc(-c4cc5c(-c6cccc(F)c6)ccnc5[nH]4)c3n2)c1` [Compound 8, N-(5-(3-(4-(3-Fluorophenyl)-1H-pyrrolo[2,3-b]pyridin-2-yl)-1H-pyrazolo [4,3-b]pyridin-5-yl)pyridin-3-yl)pivalamide], for which the concentration giving a half-maximal response (EC50) in experiment [1] was above 10 µM; with SW480 colon cancer cells, above 10 µM; in experiment [2], 1.1 µM. Further, the inhibition at 10 µM in experiment [1] was 14.3%; in the experiment on SW480 colon cancer cells, 18.4%.

On to `Fc1cccc(-c2ccnc3[nH]c(-c4n[nH]c5ccc(-c6cncc(CN7CCCCC7)c6)nc45)cc23)c1` [Compound 15, 3-(4-(3-Fluorophenyl)-1H-pyrrolo[2,3-b]pyridin-2-yl)-5-(5-(piperidin-1-ylmethyl)pyridin-3-yl)-1H-pyrazolo[4,3-b]pyridine], for which the 50% effective concentration (EC50) (in experiment [1]; in the experiment on SW480 colon cancer cells; in experiment [2]) was above 10 µM throughout. Further, the inhibition at 10 µM came out at 8% in experiment [1], 29.9% in the experiment with SW480 colon cancer cells and 10.3% in experiment [2].

For the compound `Cc1ccncc1-c1ccc2[nH]nc(-c3cc4c(-c5ccc(F)cc5)ccnc4[nH]3)c2n1` [Compound 33, 3-(4-(4-Fluorophenyl)-1H-pyrrolo[2,3-b]pyridin-2-yl)-5-(4-methylpyridin-3-yl)-1H-pyrazolo[4,3-b]pyridine], the concentration giving a half-maximal response (EC50) (in experiment [1]; in the experiment on SW480 colon cancer cells; in experiment [2]) was above 10 µM in each case. Further, the inhibition at 10 µM stood at 16.2% in experiment [1], 15.9% in the experiment on SW480 colon cancer cells and 2.9% in experiment [2].

On to `O=C(Nc1cncc(-c2ccc3[nH]nc(-c4cc5c(-c6ccc(F)cc6)ccnc5[nH]4)c3n2)c1)c1ccccc1` [Compound 39, N-(5-(3-(4-(4-Fluorophenyl)-1H-pyrrolo[2,3-b]pyridin-2-yl)-1H-pyrazolo [4,3-b]pyridin-5-yl)pyridin-3-yl)benzamide], for which the concentration for a half-maximal effect (EC50) in experiment [1] is above 10 µM; in the experiment on SW480 colon cancer cells, above 10 µM; in experiment [2], 7.79 µM. The inhibition at 10 µM in experiment [1] was 0%; in the experiment on SW480 colon cancer cells, 11.1%.

On to `Fc1ccc(-c2ccnc3[nH]c(-c4n[nH]c5ccc(-c6cncc(CN7CCC(F)(F)C7)c6)nc45)cc23)cc1` [Compound 54, 5-(5-((3,3-Difluoropyrrolidin-1-yl)methyl)pyridin-3-yl)-3-(4-(4-fluorophenyl)-1H-pyrrolo[2,3-b]pyridin-2-yl)-1H-pyrazolo[4,3-b]pyridine], for which the EC50 is above 10 µM in experiment [1], above 10 µM in the experiment on SW480 colon cancer cells and 0.374 µM in experiment [2]. Besides, the results for the inhibition at 10 µM (in experiment [1]; in the experiment with SW480 colon cancer cells) were 10.2% and 27.8%, respectively.

As to `Fc1ccc(-c2ccnc3[nH]c(-c4n[nH]c5ccc(-c6cncnc6)nc45)cc23)cc1` [Compound 55, 3-(4-(4-Fluorophenyl)-1H-pyrrolo[2,3-b]pyridin-2-yl)-5-(pyrimidin-5-yl)-1H-pyrazolo[4,3-b]pyridine], the EC50 (in experiment [1]; with SW480 colon cancer cells; in experiment [2]) was above 10 µM throughout. The inhibition at 10 µM in experiment [1] was determined as 32%; in the experiment on SW480 colon cancer cells, 20.5%; in experiment [2], 0%.

On to `CC(C)CC(=O)Nc1cncc(-c2ccc3[nH]nc(-c4cc5c(-c6ccccc6F)ccnc5[nH]4)c3n2)c1` [Compound 58, N-(5-(3-(4-(2-Fluorophenyl)-1H-pyrrolo[2,3-b]pyridin-2-yl)-1H-pyrazolo [4,3-b]pyridin-5-yl)pyridin-3-yl)-3-methylbutanamide], for which the concentration for a half-maximal effect (EC50) in experiment [1] was 0.517 µM; in the experiment with SW480 colon cancer cells it was above 10 µM; in experiment [2] it was above 10 µM. Further, the results for the inhibition at 10 µM (in the experiment on SW480 colon cancer cells; in experiment [2]) were 11.5% and 18.2%, respectively.

(Values after patent publication US10206909B2, “3-(1H-pyrrolo[2,3-B]pyridin-2-yl)-1H-pyrazolo[4,3-B]pyridines and therapeutic uses thereof” (Samumed, LLC, priority 2015, dated 2019).)
